How the values were obtained:
[1] = system: SDMA levels in U87MG tumor; assay: Test for in vivo target inhibitory activity (SDMA levels in U87MG tumor); details: U87MG tumor implanted subcutaneously in nude mice, oral 25 or 50 mg/kg 1-2 times daily for one week
Protocol: Test for In Vivo Target Inhibitory Activity
After U87MG tumor cells were implanted subcutaneously in nude mice, a PRMT5 inhibitor was administered orally (25 or 50 mg/kg) 1-2 times daily for one week, and then the degree to which SDMA levels in the tumor decreased was measured.
Reagents: Bradford's solution (Catalog No. 500-0006) was purchased from Bio-rad (USA). SDMA antibody (Catalog No. 13222s) was purchased from Cell Signaling Technology (USA). SmD3 antibody (Catalog No. ap12451a) was purchased from Abgent (USA), and secondary antibody (Catalog No. ab6721) and TMB substrate (Catalog No. ab210902) were purchased from Abcam (UK).
Experimental procedure: The tumor tissues transplanted into the mice were excised, the cells were lysed, and then quantified with Bradford's solution. 5-10 μg of protein per sample was diluted with carbonate-bicarbonate buffer and dispensed into a 96-well plate and reacted at room temperature for 2 hours. After washing with phosphate buffered saline (PBST) containing 0.05% Tween-20 3 times, 200 μL of PBST containing 5% bovine serum albumin (BSA-PBST) was added and reacted at room temperature for 2 hours. After washing with PBST 3 times, the SDMA antibody and the SmD3 antibody were diluted in BSA-PBST, and 100 μL of each was dispensed onto the plate and reacted at 4° C. overnight. After washing with PBST 3 times the next day, 100 μL of the secondary antibody diluted in BSA-PBST was added and reacted at room temperature for 1 hour. After washing with PBST 3 times, 100 μL of TMB substrate was added and reacted at room temperature for 10-20 minutes, and 100 μL of 1N sulfuric acid solution was added to terminate the reaction. Then, the absorbance at 450 nm was measured to calculate the degree of SDMA inhibition by the compound. (+++: more than 70%, ++: more than 30% and 70% or less, +: 30% or less)

[2] = target: PRMT5-MEP50 enzyme complex (Homo sapiens (Human), UniProt O14744); assay: PRMT5 enzyme activity in vitro assay (methylation of histone H4R3, ELISA absorbance at 450 nm); type: biochemical; details: SAM, histone H4 peptide, 2 hours at room temperature, 8 points from 10 μM to 0.128 nM
Sequence of PRMT5-MEP50 enzyme complex (O14744 2-637): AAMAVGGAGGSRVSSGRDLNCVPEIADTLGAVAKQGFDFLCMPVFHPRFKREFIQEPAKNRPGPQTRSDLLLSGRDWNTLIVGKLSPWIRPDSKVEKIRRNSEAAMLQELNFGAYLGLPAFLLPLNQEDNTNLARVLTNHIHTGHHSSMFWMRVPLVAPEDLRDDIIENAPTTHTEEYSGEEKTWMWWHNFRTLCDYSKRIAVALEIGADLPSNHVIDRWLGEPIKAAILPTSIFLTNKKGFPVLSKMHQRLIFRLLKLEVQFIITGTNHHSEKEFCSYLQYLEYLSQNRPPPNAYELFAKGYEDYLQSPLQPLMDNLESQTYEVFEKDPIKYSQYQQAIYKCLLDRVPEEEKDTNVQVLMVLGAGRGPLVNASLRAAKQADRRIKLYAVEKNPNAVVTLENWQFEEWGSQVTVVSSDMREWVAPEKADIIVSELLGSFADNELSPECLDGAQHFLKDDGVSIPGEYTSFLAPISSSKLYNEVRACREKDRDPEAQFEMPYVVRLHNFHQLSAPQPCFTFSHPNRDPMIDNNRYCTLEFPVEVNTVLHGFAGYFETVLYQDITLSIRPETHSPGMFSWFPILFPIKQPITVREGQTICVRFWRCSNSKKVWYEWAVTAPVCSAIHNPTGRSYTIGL
Sequence of PRMT5-MEP50 enzyme complex (Q9BQA1 2-342 partner): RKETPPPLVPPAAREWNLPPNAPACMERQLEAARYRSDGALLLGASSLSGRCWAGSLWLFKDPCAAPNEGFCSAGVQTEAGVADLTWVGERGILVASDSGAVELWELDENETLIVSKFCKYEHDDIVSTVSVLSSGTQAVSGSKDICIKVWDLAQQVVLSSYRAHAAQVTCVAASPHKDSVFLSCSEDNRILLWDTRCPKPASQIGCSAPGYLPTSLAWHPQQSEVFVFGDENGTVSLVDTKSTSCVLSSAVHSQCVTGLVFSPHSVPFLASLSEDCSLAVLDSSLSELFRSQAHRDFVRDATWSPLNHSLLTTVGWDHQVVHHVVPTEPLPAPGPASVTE
Protocol: Method for Measuring Enzyme Activity
In vitro assay: PRMT5-MEP50 enzyme complex, cofactor S-adenosylmethionine (SAM) and histone H4 peptide were reacted in vitro, and methylation of arginine (H4R3)—which is the third amino acid of histone H4—was measured in order to measure the enzyme activity of PRMT5.
S-adenosylmethionine was purchased from NEB (New England Biolabs, USA, Catalog No. B9003S).
Experimental procedure: The histone H4 peptide was diluted with carbonate-bicarbonate buffer and prepared to 100 μg/mL, and then dispensed onto the plate per 100 μL and reacted at 37° C. for 1 hour. PRMT5-MEP50 enzyme complex and S-adenosylmethionine were diluted with histone methyltransferase reaction buffer to prepare 5 μg/mL and 2 μM, respectively, and then 20 μL of PRMT5-MEP50 enzyme complex and 25 μL of S-adenosylmethionine were dispensed onto the plate prepared above. 5 μL of the compound diluted with 10% dimethyl sulfoxide solution was added thereto and reacted at room temperature for 2 hours (final volume=50 μL). […] After preparing the primary antibody by diluting 1:2000 with blocking buffer, 100 μL was added to the plate and reacted at room temperature for 1 hour. […] Then, the absorbance at 450 nm was measured to calculate the IC50 value of the compound. […]

| SMILES | SDMA inhibition (%) [1] | IC50 [2] |
| --- | --- | --- |
| CCN1CCC(Oc2ccc3c(c2)OCCN(C[C@H](O)CN2CCc4ccccc4C2)C3=O)CC1 [Example 88, 4-[(2R)-3-(3,4-dihydro-1H-isoquinolin-2-yl)-2-hydroxy-propyl]-8-[(1-ethyl-4-piperidyl)oxy]-2,3-dihydro-1,4-benzoxazepin-5-one] | +++ (+++: more than 70%) | – |
| CN1CCC(Oc2ccc3c(c2)OCCN(C[C@H](O)CN2CCc4ccccc4C2)C3=O)CC1 [Example 87, 4-[(2R)-3-(3,4-dihydro-1H-isoquinolin-2-yl)-2-hydroxy-propyl]-8-[(1-methyl-4-piperidyl)oxy]-2,3-dihydro-1,4-benzoxazepin-5-one] | +++ (+++: more than 70%) | – |
| CN1CCC(Oc2ccc3c(c2)OC(C)(C)CN(C[C@H](O)CN2CCc4ccccc4C2)C3=O)CC1 [Example 112, 4-[(2R)-3-(3,4-dihydro-1H-isoquinolin-2-yl)-2-hydroxy-propyl]-2,2-dimethyl-8-[(1-methyl-4-piperidyl)oxy]-3H-1,4-benzoxazepin-5-one] | +++ (+++: more than 70%) | – |
| O=C1c2ccc(OC3CCN(C4COC4)CC3)cc2OCCN1C[C@H](O)CN1CCc2ccccc2C1 [Example 92, 4-[(2R)-3-(3,4-dihydro-1H-isoquinolin-2-yl)-2-hydroxy-propyl]-8-[[1-(oxetan-3-yl)-4-piperidyl]oxy]-2,3-dihydro-1,4-benzoxazepin-5-one] | +++ (+++: more than 70%) | – |
| CCN1C(=O)CN(C[C@H](O)CN2CCc3ccccc3C2)C(=O)c2ccc(Br)cc21 [Example 158, 8-bromo-4-[(2R)-3-(3,4-dihydro-1H-isoquinolin-2-yl)-2-hydroxy-propyl]-1-ethyl-3H-1,4-benzodiazepin-2,5-dione] | – | 100 to 1000 nM |
| COc1ccc2c(c1)OCCN(CC(O)CN1CCc3ccccc3C1)C2=O (centres unmarked) [Example 1, 4-[3-(3,4-dihydro-1H-isoquinolin-2-yl)-2-hydroxy-propyl]-8-methoxy-2,3-dihydro-1,4-benzoxazepin-5-one] | – | 100 to 1000 nM |
| O=C1c2ccc(CN3CCOCC3)cc2OCCN1C[C@H](O)CN1CCc2ccccc2C1 [Example 22, 4-[(2R)-3-(3,4-dihydro-1H-isoquinolin-2-yl)-2-hydroxy-propyl]-8-(morpholinomethyl)-2,3-dihydro-1,4-benzoxazepin-5-one] | +++ (+++: more than 70%) | – |
| O=C1c2ccc(Br)cc2CCCN1C[C@H](O)CN1CCc2ccccc2C1 [Example 155, 7-bromo-2-[(2R)-3-(3,4-dihydro-1H-isoquinolin-2-yl)-2-hydroxy-propyl]-4,5-dihydro-3H-2-benzazepin-1-one] | + (+: 30% or less) | – |

From US11725001B2, “Bicyclic compound and use thereof” (SK BIOPHARMACEUTICALS CO., LTD., priority 2019, dated 2023)
